Reference: patent US20090233906A1, “IMIDAZOAZEPINONE COMPOUNDS” (priority 2006, published 2009)

Tested on: human T-bet
Test: HEKT-bet-luc assay (normalized)
Assay type: cell-based
Details: Homo sapiens, HEK293, 24 h, normalized HEKT-bet-luc IC50; engineered HEK cells, T-box responsive luciferase reporter, compound 24 hours; normalized to reference ER-819544; read-out: IC50
Method: HEKT-bet-luc assay: This assay measures a T-bet dependent reporter (luciferase) activity in engineered HEK cells that express a human T-bet and a T-box responsive element driving luciferase reporter. HEKT-bet cells were plated at 2×10^4/well in 96-well plate and compound was added into cell culture for 24 hours. Luciferase activity was measured by adding 50 μl of Steady-Glo reagent (Promega) and samples were read in Victor V reader (PerkinElmer). The activity of compound was determined by comparing compound treated samples to non-compound treated vehicle controls. The IC50 values were calculated utilizing a maximum value corresponding to the amount of luciferase in the absence of a test compound and a minimum value corresponding to a test compound value obtained at maximum inhibition.
Determination of Normalized HEKT-bet IC50 values: Compounds were assayed in microtiter plates. Each plate included a reference compound which was ER-819544. The un-normalized IC50 value for a particular compound was divided by the IC50 value determined for the reference compound in the same microtiter plate to provide a relative potency value. The relative potency value was then multiplied by the established potency of the reference compound to provide the normalized HEKT-bet IC50 value. […] The IC50 values provided herein were obtained using this normalization method.

| SMILES | IC50 [nM] |
| --- | --- |
| CCN1C(=O)N2Cc3cc(OC)cc(OC)c3C(C)C=C2C12CCN(Cc1cccc3ncccc13)CC2 (centres unmarked) [compound 819592] | 86 |
| CCN1C(=O)N2Cc3cc(OC)cc(OC)c3C(C)C=C2C12CCN(Cc1cn(C)c3ccccc13)CC2 (centres unmarked) [compound 819596] | 720 |
| CCN1C(=O)N2Cc3cc(OC)cc(OC)c3C(C)C=C2C12CCN(Cc1ccco1)CC2 (centres unmarked) [compound 819768] | 183 |
| COCCN1C(=O)N2Cc3cc(OC)cc(OC)c3C(C)(C)C=C2C12CCN(Cc1cccc(OC)c1)CC2 [compound 819647] | 64 |
| COc1cc(CN2CCC3(CC2)C2=CC(C)(C)c4c(cc(OC)cc4OC)CN2C(=O)N3Cc2ccccc2)cc(OC)c1 [compound 819662] | 898 |
| COCCN1C(=O)N2Cc3cc(OC)ccc3C(C)(C)C=C2C12CCN(Cc1cc(OC)cc(OC)c1)CC2 [compound 819655] | 204 |
| COCCN1C(=O)N2Cc3cc(OC)cc(OC)c3C(C)(C)C=C2C12CCN(Cc1ccccc1)CC2 [compound 819641] | 98 |
| C=C1C=C2N(Cc3cc(OC)cc(OC)c31)C(=O)N(CC)C21CCN(Cc2cc(OC)cc(OC)c2)CC1 [compound 819703] | 247 |
| CCC1C=C2N(Cc3cc(OC)cc(OC)c31)C(=O)N(CCOC)C21CCN(Cc2cc(OC)cc(OC)c2)CC1 (centres unmarked) [compound 819549] | 15 |
| CCN1C(=O)N2Cc3cc(OC)cc(OC)c3C(C)C=C2C12CCN(Cc1ccc(C)o1)CC2 (centres unmarked) [compound 819770] | 267 |

Same assay, conditions: Homo sapiens, HEKT-bet-luc assay; value used for normalization; read-out: established potency of the reference compound (IC50)

| SMILES | IC50 [nM] |
| --- | --- |
| COCCN1C(=O)N2Cc3cc(OC)cc(OC)c3C(C)(C)C=C2C12CCN(Cc1cc(OC)cc(OC)c1)CC2 [ER-819544] | 35 |
